{
  "source": "patent US20200230205A1",
  "about": "“COMPOSITIONS AND METHODS FOR TREATING MYELIN DISORDERS” (CASE WESTERN RESERVE UNIVERSITY, priority 2017, published 2020)",
  "assay_type_in_all_cases": "cell-based, mouse",
  "key": {"[1]": {"test_system": "oligodendrocyte progenitor cells (OPCs)", "experiment": "CSPG gradient crossing (spot) assay, OPC migration", "method": "(§1) CSPG gradients were prepared as described previously (Tom, V. J., et al. Studies on the Development and Behavior of the Dystrophic Growth Cone, the Hallmark of Regeneration Failure, in an In vitro Model of the Glial Scar and after Spinal Cord Injury.). 24-well glass coverslip were coated with poly-L-lysine and nitrocellulose, and a mixture of 700 μg/mL aggrecan (A1960 Sigma) and 10 μg/mL laminin (11243217001 Sigma) spotted on the coated coverslip. After drying, coated coverslips were then incubated with laminin at 37° C. for 3h. Purified OPCs were plated at a density of 10,000/coverslip and cultured in DMEM/F12 medium containing with N2, PDGF (20 ng/ml), FGF (20 ng/ml), NT-3 (5 ng/ml), CNTF (O1 ng/ml), Glutamine (200 mM). Coverslips were stained with CS-56 (C8035, Sigma, 1:500) and O4 antibodies (Hybridoma Core Cleveland Clinic, 1:10). O4-positive cells crossing the aggrecan border were counted for each spot. For CSPG gradient quantification, 1×10^6 OPCs were plated per well on PLL, 1 μg/mL laminin, and 2 μg/mL aggrecan coated 6-well plates. OPCs treated with vehicle, 2.5 μM ISP, or 2.5 μM SISP for 2 days at 37° C. CM was harvested and incubated with freshly made spots. Spots were incubated with CM for 2 days at 37° C. then stained with CS-56 and laminin (L9393, Sigma, 1:1000) antibodies and consistently imaged. Using ImageJ software (NIH), pixel intensities of the CS-56 or laminin spot rims were quantified using the same ROI. For cultured spinal cord explant, the spinal cords of cervical and thoracic of P1 mouse pups were chopped into 1-2 mm tissue pieces and transferred to the coverslip. Explants were cultured in DMEM/F12 medium with 15% FBS (Hyclone), O1 ng/ml PDGF (Sigma) and N2 supplement (Invitrogen). For ISP treatment, 2.5 uM ISP was added to the media at the time of plating. 25 μM GM6001 (2983, Tocris), 100 nM MMP-2 inhibitor (444244, Calbiochem), and/or 2.5 μM ISP or SISP was used."}, "aggrecan (CS56)": {"test_system": "aggrecan (CS56)", "experiment": "CSPG degradation by OPC conditioned media (CS56 spot quantification and western blot of aggrecan)", "method": "as §1\nCM was harvested from 1×10^6 OPCs incubated on PLL, 1 μg/mL laminin, and 2 μg/mL aggrecan coated 6-well plates. OPCs were treated with vehicle, 2.5 μM ISP, or 2.5 μM SISP in conjunction with 10 μg/mL Exo1 (ab120292, Abcam), or 25 μM GM6001 (364205, Calbiochem) for 2 days at 37° C. […] CM of each cell-strained group was incubated with 20 μg/mL aggrecan and/or 10 μg/mL laminin for 2 hours in lmL Eppendorf tubes at 37° C. As a positive control, OPC media was incubated with aggrecan and incubated in the same fashion. Western blots were then performed as described below with incubation against CS-56 and/or laminin antibodies."}, "[2]": {"test_system": "oligodendrocyte progenitor cells (OPCs)", "experiment": "OPC maturation and process outgrowth on CSPGs (MBP footprint)", "method": "OPCs were prepared from newborn C57BL/6 mice as described previously (Luo, F., et al. The Activators of Cyclin-Dependent Kinase 5 p35 and p39 Are Essential for Oligodendrocyte Maturation, Process Formation, and Myelination. J. Neurosci. 36, 3024-3037 (2016).). Cell culture plates were pre-coated with IgM (10 jpg/ml, Millipore) in 50 mM Tris-HCl and followed primary mouse antibody A2B5. Dissociated cells were incubated in the pre-coated culture dishes for 30 min at 37° C. and then non-adherent cells were gently removed. A2B5+ OPCs were released by 0.05% trypsin in DMEM at a purify of ˜96%. Purified OPC cells were expanded in DMEM/F12 medium supplemented with N2, 20 ng/ml PDGF, 20 ng/mlFGF, 5 ng/mlNT-3, 10 ng/ml CNTF, Glutamine (200 mM).\nFor MMP-2/04 staining, OPCs were plated onto 24-well coverslips that were precoated with PLL, 1 μg/mL laminin, and 2 μg/mL aggrecan and incubated with vehicle or 2.5 μM ISP for 2 days at 37° C. Cultured OPC or OL cells were fixed in 4% PFA and followed blocking in PBST solution (10% normal goat serum and 0.2% Triton-X100 in PBS). Diluted primary antibodies were incubated with samples overnight at 4° C. and followed by appropriate secondary antibody goat anti-mouse or anti-rabbit IgM or IgG conjugated with Alexa Fluor 488 or 594 (1:500, Invitrogen). […]"}},
  "data": [
    {"compound": "CCCCCCCC/C=C\\CCCCCCCC(=O)NO", "note": "[OA-Hy, reference compound]", "values": [
      {"measurement": "OPC entry into the CSPG-rich area", "setting": "[1]; 25 μM GM6001 or 100 nM OA-Hy, even in the presence of ISP", "value": "effectively halted OPC entry"},
      {"measurement": "CS56 spot degradation", "setting": "aggrecan (CS56); 25 μM GM6001 or 100 nM OA-Hy with 2.5 μM ISP", "value": "additionally rescued CS56 spot degradation"},
      {"measurement": "aggrecan GAG digestion (CS56 immunoblot)", "setting": "aggrecan (CS56); Exo1 10 μg/mL, GM6001 25 μM or OA-Hy 100 nM with 2.5 μM ISP", "value": "partially rescued"},
      {"measurement": "MBP footprint", "setting": "[2]; 100 nM OA-Hy, OPCs on aggrecan/laminin, vs ISP treatment alone", "value": "decreased MBP footprint significantly"}
    ]},
    {"compound": "GRKKRRQRRRCDMAEHMERLKANDSLKLSQEYESI [ISP]", "values": [
      {"measurement": "O4+ OPCs crossing the CSPG barrier", "setting": "[1]; purified OPCs, 2.5 μM ISP vs control", "value": "significantly induced greater O4+ OPC migration"},
      {"measurement": "CS56 immunoblot of aggrecan incubated with OPC CM", "setting": "aggrecan (CS56); 2.5 μM ISP, aggrecan 20 μg/mL", "value": "significant CS56 degradation"},
      {"measurement": "CS56 expression of aggrecan/laminin spots", "setting": "aggrecan (CS56); CM of OPCs treated with 2.5 μM ISP, vs vehicle, SISP and no cell control", "value": "significantly reduced CS56 expression"},
      {"measurement": "CS56 band, western blot", "setting": "aggrecan (CS56); ISP at 2.5 and 5 μM doses vs control", "value": "significant ISP-treated CS56 degradation"},
      {"measurement": "aggrecan digestion, dependence on ISP dose (western blot)", "setting": "aggrecan (CS56); varying doses of ISP, aggrecan 20 μg/mL, 2 hours", "value": "dose-dependent manner"},
      {"measurement": "process outgrowth and maturation of OPCs grown on CSPGs (MBP+ footprints)", "setting": "[2]; ISP vs vehicle on CSPGs", "value": "largely rescued"}
    ]}
  ]
}
